Experimental data as given in US5656440A, “Nucleotide sequences coding for the bovine β3 -adrenergic receptor (ARβ3) and their applications” (Virbac, priority 1993, dated 1997).
Read-outs that look alike come from different tables or passages of the source.

Key:
bovine ARβ3 receptor [1] = target: T1, bovine ARβ3 receptor (Bos taurus, UniProt P46626); test: competitive binding of ligands against [^125 I]cyanopindolol on intact CHO cells, bovine receptor (clone 62-26)
T1 construct: to liberate the 1598-base pair fragment containing the coding region of the bovine β3 gene; expressed in transfected cells
Description: Reaction is stopped by dilution with ice-cold PBS, the cells are filtered off and the radioactivity is measured in a gamma counter. The results were analysed using Graph-Pad.COPYRGT. software.

bovine ARβ3 receptor [2] = target: T1, bovine ARβ3 receptor; test: adenylate cyclase activation (cAMP accumulation) in CHO cells, bovine receptor (clone 62-26); type: cell-based; set-up: Emax: dose or concentration left out as unconfirmed; conditions: for Emax: CHO; for Emax / Emax at 100 µM: 0.5 h, read-out: Accumul. cAMP IA (intrinsic activity)
Description: Briefly, preconfluent cells in six-well plates (0.6×10^6 cells/well) are placed in contact or otherwise with increasing doses of ligands for 30 minutes at 37° C. Reaction is stopped by washing in PBS at 4° C. and adding 500 μl of 1N NaOH. After centrifugation and neutralization with 1N acetic acid, the cell lysates are recovered and the total amount of cAMP accumulated is determined using a commercial assay kit.

mouse ARβ3 receptor [3] = conditions: Mouse RAβ3-CHO; read-out: Binding Ki; cited from earlier work
mouse ARβ3 receptor [4] = conditions: cited from earlier work; for Accumul. cAMP IA (intrinsic activity) / EC50: Mouse RAβ3-CHO; for Accumul. cAMP IA (intrinsic activity): ratio of effect of ligand at 10^-4 M to effect of isoproterenol at 10^-4 M, 100 µM; for EC50: read-out: Accumul. cAMP Kact (adenylate cyclase activation constant); for functional character (agonist/antagonist): mouse ARβ3
human ARβ3 receptor [5] = conditions: Human RAβ3-CHO; read-out: Binding Ki; cited from earlier work
human ARβ3 receptor [6] = conditions: cited from earlier work; for Accumul. cAMP IA (intrinsic activity) / EC50: Human RAβ3-CHO; for Accumul. cAMP IA (intrinsic activity): ratio of effect of ligand at 10^-4 M to effect of isoproterenol at 10^-4 M, 100 µM; for EC50: read-out: Accumul. cAMP Kact (adenylate cyclase activation constant); for functional character (agonist/antagonist): human ARβ3
β1 -, β2 - and β3 -AR = conditions: β1, β2, β3 subtypes; cited from earlier work
bovine ARβ3 = test: binding of [^125 I]cyanopindolol to transfected cells stably expressing ARβ3
Source text: Stable colonies are screened for their capacity to bind specifically to [^125 I]cyanopindolol and also for their capacity to stimulate adenylate cyclase in the presence of isoproterenol, in accordance with protocol described in TATE et al., Eur. J. Biochem., 191, 196, 357-361.

[7] = BovineRAβ3-CHO, 0.5 nM [^125 I]cyanopindolol, 30 minutes at 37° C., read-out: Binding Ki
[8] = BovineRAβ3-CHO, ratio of effect of ligand at 10^-4 M to effect of isoproterenol at 10^-4 M
[9] = BovineRAβ3-CHO, 30 minutes at 37° C., read-out: Accumul. cAMP Kact (adenylate cyclase activation constant)

T1 sequence (P46626 whole entry, the tested form may be a part): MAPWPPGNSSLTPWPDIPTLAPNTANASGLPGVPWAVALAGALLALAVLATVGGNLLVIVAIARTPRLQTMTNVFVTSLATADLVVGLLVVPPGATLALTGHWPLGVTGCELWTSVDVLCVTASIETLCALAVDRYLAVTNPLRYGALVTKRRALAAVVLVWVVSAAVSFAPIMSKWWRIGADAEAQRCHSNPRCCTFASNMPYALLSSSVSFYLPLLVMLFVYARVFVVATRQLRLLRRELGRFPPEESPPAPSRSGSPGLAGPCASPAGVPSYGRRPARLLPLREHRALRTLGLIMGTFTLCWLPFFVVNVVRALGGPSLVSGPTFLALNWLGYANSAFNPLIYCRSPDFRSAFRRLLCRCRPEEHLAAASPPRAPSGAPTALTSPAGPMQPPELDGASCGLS

Structure (SMILES): C[C@H](Cc1ccc(OCC(=O)O)cc1)NC[C@H](O)c1cccc(Cl)c1 (relative stereo) [BRL 37344]
- Ki (bovine ARβ3 receptor [1]): 2.13 ± 1.4 nM
- EC50 (bovine ARβ3 receptor [2]): 0.3 nM
- Emax (bovine ARβ3 receptor [2]): 84 ± 10%
- Ki (mouse ARβ3 receptor [3]): 290 ± 136 nM
- Accumul. cAMP IA (intrinsic activity) (mouse ARβ3 receptor [4]): 1.07 ± 0.08
- EC50 (mouse ARβ3 receptor [4]): 0.4 ± 0.1 nM
- Ki (human ARβ3 receptor [5]): 287 ± 92 nM
- Accumul. cAMP IA (intrinsic activity) (human ARβ3 receptor [6]): 1.11 ± 0.12
- EC50 (human ARβ3 receptor [6]): 15 ± 3 nM
- described agonist/antagonist class (β1 -, β2 - and β3 -AR): β1 -, β2 - and β3 -AR-receptor agonists

Structure (SMILES): Cc1ccc(Cl)c(OCC(O)CNC(C)(C)C)c1 (single isomer, unassigned; (-)) [(-) bupranolol, bupranolol]
- Ki (bovine ARβ3 receptor [1]; [7]): 85 ± 40 nM
- Emax at 100 µM (bovine ARβ3 receptor [2]; [8]): 34 ± 1%
- EC50 (bovine ARβ3 receptor [2]; [9]): 507 nM
- functional character (agonist/antagonist) (bovine ARβ3 receptor [2]; bovine ARβ3): partial agonist
- Ki (mouse ARβ3 receptor [3]): 42 ± 19 nM
- functional character (agonist/antagonist) (mouse ARβ3 receptor [4]): antagonist
- functional character (agonist/antagonist) (mouse ARβ3 receptor [4]; listed as bupranolol): potent antagonist
- Ki (human ARβ3 receptor [5]): 50 ± 14 nM
- functional character (agonist/antagonist) (human ARβ3 receptor [6]): antagonist
- functional character (agonist/antagonist) (human ARβ3 receptor [6]; listed as bupranolol): potent antagonist
- described agonist/antagonist class (β1 -, β2 - and β3 -AR): antagonist of the three subtypes of receptor

Structure (SMILES): CC(C)NCC(O)c1ccc(O)c(O)c1 (single isomer, unassigned; (-)) [(-) isproterenol, (-)-iso-proterenol]
- Ki (bovine ARβ3 receptor [1]): 84 ± 81 nM
- EC50 (bovine ARβ3 receptor [2]): 14 ± 2 nM
- Emax (bovine ARβ3 receptor [2]): 90 ± 10%
- Ki (human ARβ3 receptor [5]): 620 nM
- described agonist/antagonist class (β1 -, β2 - and β3 -AR): β1 -, β2 - and β3 -AR-receptor agonists

Structure (SMILES): CNC[C@H](O)c1ccc(O)c(O)c1 [(- ) epinephrine, (-)-epinephrine]
- Ki (bovine ARβ3 receptor [1]; [7]): 11100 nM
- EC50 (bovine ARβ3 receptor [2]; [9]): 50.7 nM
- Emax (bovine ARβ3 receptor [2]): 80 ± 30%
- Ki (mouse ARβ3 receptor [3]): 4600 nM
- Accumul. cAMP IA (intrinsic activity) (mouse ARβ3 receptor [4]): 0.91 ± 0.03
- EC50 (mouse ARβ3 receptor [4]): 23 ± 0.3 nM
- Ki (human ARβ3 receptor [5]): 20600 nM
- Accumul. cAMP IA (intrinsic activity) (human ARβ3 receptor [6]): 1.00 ± 0.04
- EC50 (human ARβ3 receptor [6]): 49 ± 5 nM
- described agonist/antagonist class (β1 -, β2 - and β3 -AR): β1 -, β2 - and β3 -AR-receptor agonists

Structure (SMILES): CC(C)NC[C@H](O)COc1cccc2ccccc12 [(- ) propranolol, (-)-propranolol]
- functional character (agonist/antagonist) (mouse ARβ3 receptor [4]): antagonist
- Accumul. cAMP IA (intrinsic activity) (human ARβ3 receptor [6]): 0.51 ± 0.12
- functional character (agonist/antagonist) (human ARβ3 receptor [6]): partial agonist

Structure (SMILES): NC[C@H](O)c1ccc(O)c(O)c1 [(-) norepinephrine, (-)-norepinephrine]
- Ki (bovine ARβ3 receptor [1]): 423 ± 255 nM
- EC50 (bovine ARβ3 receptor [2]): 54 ± 4.3 nM
- Emax (bovine ARβ3 receptor [2]): 100 ± 50%
- Ki (mouse ARβ3 receptor [3]): 1840 nM
- Accumul. cAMP IA (intrinsic activity) (mouse ARβ3 receptor [4]): 1.06 ± 0.06
- EC50 (mouse ARβ3 receptor [4]): 13 ± 4 nM
- Ki (human ARβ3 receptor [5]): 475 ± 75 nM
- Accumul. cAMP IA (intrinsic activity) (human ARβ3 receptor [6]): 1.00
- EC50 (human ARβ3 receptor [6]): 6.32 ± 0.7 nM
- described agonist/antagonist class (β1 -, β2 - and β3 -AR): β1 -, β2 - and β3 -AR-receptor agonists

Structure (SMILES): CC(C)(Cc1c[nH]c2ccccc12)NCC(O)COc1ccccc1C#N (stereo not drawn) [Bucindolol, bucindolol]
- Ki (bovine ARβ3 receptor [1]; [7]): 73 ± 42 nM
- Emax at 100 µM (bovine ARβ3 receptor [2]; [8]): 99 ± 10%
- EC50 (bovine ARβ3 receptor [2]; [9]): 12.8 nM
- Ki (mouse ARβ3 receptor [3]): 21 ± 5 nM
- Accumul. cAMP IA (intrinsic activity) (mouse ARβ3 receptor [4]): 1.11 ± 0.06
- EC50 (mouse ARβ3 receptor [4]): 40 ± 14 nM
- Ki (human ARβ3 receptor [5]): 23 ± 10 nM
- Accumul. cAMP IA (intrinsic activity) (human ARβ3 receptor [6]): 1.01 ± 0.10
- EC50 (human ARβ3 receptor [6]): 7 ± 1.2 nM
- described agonist/antagonist class (β1 -, β2 - and β3 -AR): specific for the ARβ3 receptor (β1 -, β2 -AR antagonists)

Structure (SMILES): CC(C)(C)NCC(O)COc1cccc2[nH]c(=O)[nH]c12 (stereo not drawn) [CGP 12177A]
- Ki (bovine ARβ3 receptor [1]; [7]): 218 ± 161 nM
- Emax at 100 µM (bovine ARβ3 receptor [2]; [8]): 93 ± 20%
- EC50 (bovine ARβ3 receptor [2]; [9]): 1.41 nM
- Ki (mouse ARβ3 receptor [3]): 152 ± 19 nM
- Ki (human ARβ3 receptor [5]): 88 ± 22 nM
- Accumul. cAMP IA (intrinsic activity) (human ARβ3 receptor [6]): 0.68 ± 0.02
- EC50 (human ARβ3 receptor [6]): 139 ± 44 nM
- described agonist/antagonist class (β1 -, β2 - and β3 -AR): specific for the ARβ3 receptor (β1 -, β2 -AR antagonists)

Structure (SMILES): O=C(O)COc1ccc(OCCNCC(O)COc2ccccc2)cc1 (stereo not drawn) [ICI 201651]
- Ki (bovine ARβ3 receptor [1]; [7]): 27.7 ± 24 nM
- EC50 (bovine ARβ3 receptor [2]; [9]): 1.1 nM
- Accumul. cAMP IA (intrinsic activity) (bovine ARβ3 receptor [2]; BovineRAβ3-CHO, ratio of effect of ligand at 10^-4 M to effect of isoproterenol at 10^-4 M, 30 min, 100 µM): 0.85 ± 0.1
- Ki (mouse ARβ3 receptor [3]): 239 ± 104 nM
- Accumul. cAMP IA (intrinsic activity) (mouse ARβ3 receptor [4]): 1.02 ± 0.02
- EC50 (mouse ARβ3 receptor [4]): 15 ± 1 nM
- Ki (human ARβ3 receptor [5]): 85 ± 12 nM
- Accumul. cAMP IA (intrinsic activity) (human ARβ3 receptor [6]): 1.14 ± 0.14
- EC50 (human ARβ3 receptor [6]): 20 ± 9 nM
- described agonist/antagonist class (β1 -, β2 - and β3 -AR): specific for the ARβ3 receptor (β1 -, β2 -AR antagonists)

Structure (SMILES): CC(C)(C)NCC(O)COc1cccc2[nH]c(C#N)c([125I])c12 (stereo not drawn) [[^125 I]cyanopindolol]
- binding affinity compared to ARβ3 in man or in mouse (bovine ARβ3): affinity equivalent to that of the corresponding ARβ3 in man or in mouse
